Results reported in US7579374B2, “Agent for improving bone metabolism” (The Nisshin OilliO Group, Ltd., priority 2001, dated 2009).

Key:
Type in all cases: cell-based, mice
osteoclasts = assay: Bone absorption-inhibitory action in cell co-cultivation system (TRACP activity); parameters: key to Judged Efficacy (TRACP, t-test relative to the control): ⊚: The test substance shows a considerable inhibitory effect (p < 0.01); ◯: The test substance shows an inhibitory effect (p < 0.05); Δ: The test substance shows only slight or no inhibitory effect (there is not observed any significant difference); X: The test substance shows a bone absorption-promoting effect (there is observed a negativesignificant difference); conditions: 10 μM test substance; for Judged Efficacy (TRACP, t-test relative to the control): 2 weeks; for TRACP Act.: co-culture 2 weeks with 10 nM Calcitriol and 100 nM Dexamethasone, control 102.8 ± 12.6
Excerpt: The cell co-culture system used herein means a system in which osteoblasts and hematopoietic cells are subjected to co-culture in the presence of a factor for promoting the formation of osteoclasts and which thus easily permits the analysis of the differentiation process of the osteoclasts (Endocrinology, 1988, 123: 2600-2602). In such a system, osteoclasts are formed and therefore, the degree of osteoclast-formation can be evaluated by the determination of a tartaric acid-resistant acid phosphatase (TRACP) activity in the cell layer as the parameter indicative of the osteoclast.
The test for the confirmation of the bone absorption-inhibitory action of the isoprenoid ester was carried out according to the method disclosed in the literature (Endocrinology, 1988, 123: 2600). The method will be outlined below:
Stroma cells collected from the skull-caps of two-week-old mice according to the method disclosed in the literature (Endocrinology, 1988, 123: 2600) were dispersed in a 10% fetal bovine serum-containing culture base liquid (α-MEM; available from Gibco Company) to a cell density of 5×10^4 cells/mL.
Spleen cells collected from the spleen of 6-week-old ddy male mice according to the method disclosed in the literature (Proc. Natl. Acad. Sci. USA, 1983, 80: 5583) were dispersed in a 10% fetal bovine serum-containing culture base liquid (α-MEM; available from Gibco Company) to a cell density of 5×10^5 cells/mL.
The co-cultivation was carried out in a 5% CO2-containing atmosphere at a temperature of 37° C. using a 10% FBS (fetal bovine serum)-containing culture base liquid (α-MEM; available from Gibco Company). Osteoblast cells were inoculated on a 24-well petri dish at a cell density of 5×10^4 cells/mL/well, spleen cells were then inoculated thereon at a cell density of 5×10^5 cells/mL/well after one day and a solution of a test substance, which had been dissolved in DMSO in a concentration of 10^-2M, was then added to each well in such a manner that the concentration of the test substance was equal to 10 μM. These cells were cultivated in the presence of 10 nM Calcitriol and 100 nM Dexamethasone over 2 weeks while defining the day on which the spleen cells were inoculated as 0th day. In this respect, the culture medium was replaced with fresh one twice a week. After two weeks, the activity of the tartrate-resistant acid phosphatase (hereunder referred to as “TRACP”) in the cell layer was determined, which served as a parameter indicating the number of osteoclasts in the layer.
In the determination of the TRACP activity, there was used a kit of acid phosphatase KII-WAKO (available from WAKO Pure Chemical Co., Ltd.). The culture medium was removed from the Petri dish, 500 μL each of a substrate was added to each well, the resulting cell suspension was heated at 37° C. for 15 minutes, followed by the addition of 500 μL each of a color developing liquid and the determination of the absorbance at a wavelength of 570 nm. The TRACP activity corresponding to each absorbance thus measured was determined using a calibration curve prepared in advance.

MC3T3-E1 cells [1] = assay: Cell growth rate of osteoblasts in cell culture system; conditions: 10 μM; for Cell Growth Rate: viable cells after 3 days, relative to control defined as 100
Excerpt: (§1) In such a system, the osteoblasts are proliferated and the activity of osteoblasts is increased. Therefore, any influence of a substance on the osteoblast-formation can be evaluated by determining, for instance, the rate of cell proliferation and the alkaline phosphatase (ALP) activity as an activity parameter.
(§2) In this Example, there were examined the effects of the chain isoprenoid fatty acid esters on the differentiation and calcium-accumulation of MC3T3-E1 cells or the osteoblasts derived from the skull-caps of mice. A culture medium was added to a 6-well plate in an amount of 2 mL/well, a desired number of MC3T3-E1 cells was inoculated on the medium and the cells were cultivated in a 10% fatal bovine serum-containing base culture liquid (α-MEM, available from Gibco Company) at 37° C. in an atmosphere of 5% CO2. On the day subsequent to the initiation of the cultivation, the culture medium was replaced with the fresh one and simultaneously a solution containing each test sample (the chain isoprenoid fatty acid esters obtained in Preparation Examples 1 to 9) was admixed with and added to the culture medium in an amount of 10 μM for the determination of the cell growth rate and 2.5 μM for the determination of the alkali phosphatase (ALP) activity and the cultivation was continued. The cells for the cell growth rate determination were recovered after 3 days from the initiation of the cultivation and the number of viable cells was counted to determine the cell growth rate. Regarding the other cells, the medium was replaced with fresh one on 5th day of cultivation, the test sample-containing solution was again added and the alkali phosphatase (ALP) activity was determined after the cultivation over one week.
The cell growth rate was calculated as a value relative to the cell growth rate observed for the control (free of any added test sample), which was defined to be 100.

MC3T3-E1 cells [2] = assay: Alkaline phosphatase (ALP) activity of osteoblasts in cell culture system; parameters: key to Judged Efficacy (ALP, t-test relative to the control): ⊚: The test substance shows a considerable inhibitory effect (p < 0.01); ◯: The test substance shows an inhibitory effect (p < 0.05); Δ: The test substance shows only slight or no inhibitory effect (there is not observed any significant difference); X: The test substance shows a bone absorption-promoting effect (there is observed a negativesignificant difference); conditions: 2.5 μM; for ALP Act.: cultivation over one week, control 71.6 ± 4.6; for Judged Efficacy (ALP, t-test relative to the control): one week
Excerpt: as §1, §2
In these experiments, there was used a kit for Alkaline Phospha K-Test WAKO (available from WAKO Pure Chemical Co., Ltd.). A sample used was a suspension of cells obtained by cultivating the same in the presence of each test substance added. A substrate (150 μL) was added to 10 μL of each sample followed by heating at 37° C. for 15 minutes, the addition of 150 μL of a color-developing liquid and determination of the absorbance at 570 nm. The ALP activity corresponding to each absorbance thus measured was determined using a calibration curve prepared in advance.

`CC1=C(C/C=C(\C)CCC[C@H](C)CCC[C@H](C)CCCC(C)C)C(=O)c2ccccc2C1=O` [Vitamin K1, reference compound] was tested, and the “Judged Efficacy (TRACP, t-test relative to the control)” value (osteoclasts) was “◯ (The test substance shows an inhibitory effect (p < 0.05))”, the “TRACP Act.” value (osteoclasts) was 88.5 ± 8.1 KA-U/well and the “Cell Growth Rate” value (MC3T3-E1 cells [1]) was 69.3%. For the same compound, the “ALP Act.” value (MC3T3-E1 cells [2]) was 76.1 ± 4.9 KA-U/well and the “Judged Efficacy (ALP, t-test relative to the control)” value (MC3T3-E1 cells [2]) was “Δ”.
With Farnesyl Eicosapentaenoate the “Judged Efficacy (TRACP, t-test relative to the control)” value (osteoclasts) was “Δ”, the “TRACP Act.” value (osteoclasts) was 96.9 ± 12.7 KA-U/well and the “Cell Growth Rate” value (MC3T3-E1 cells [1]) was 115.6%. The “ALP Act.” value (MC3T3-E1 cells [2]) was 85.4 ± 8.4 KA-U/well and the “Judged Efficacy (ALP, t-test relative to the control)” value (MC3T3-E1 cells [2]) was “◯ (The test substance shows an inhibitory effect (p < 0.05))”.
`CCC=CCC=CCC=CCC=CCC=CCCCC(=O)OCCC(C)CCCC(C)CCCC(C)CCCC(C)C` (centres unmarked) [Dihydrophytyl Eicosapentaenoate] was tested, and the “Judged Efficacy (TRACP, t-test relative to the control)” value (osteoclasts) was “◯ (The test substance shows an inhibitory effect (p < 0.05))”, the “TRACP Act.” value (osteoclasts) was 83.4 ± 9.4 KA-U/well and the “Cell Growth Rate” value (MC3T3-E1 cells [1]) was 118.9%. The “ALP Act.” value (MC3T3-E1 cells [2]) was 118.7 ± 8.9 KA-U/well and the “Judged Efficacy (ALP, t-test relative to the control)” value (MC3T3-E1 cells [2]) was “⊚ (The test substance shows a considerable inhibitory effect (p < 0.01))”.
`CC(C)=CCC/C(C)=C/CC/C(C)=C/CC/C(C)=C/CC1=C(C)C(=O)c2ccccc2C1=O` [Vitamin K2 (MK-4), reference compound] was tested, and the “Judged Efficacy (TRACP, t-test relative to the control)” value (osteoclasts) was “⊚ (The test substance shows a considerable inhibitory effect (p < 0.01))”, the “TRACP Act.” value (osteoclasts) was 20.3 ± 4.1 KA-U/well and the “Cell Growth Rate” value (MC3T3-E1 cells [1]) was 32.4%. The “Effect on proliferation of osteoblasts (in words)” value (MC3T3-E1 cells [1]; compared with the control) was “reduces the rate of cell proliferation”, the “ALP Act.” value (MC3T3-E1 cells [2]) was 78.6 ± 3.2 KA-U/well and the “Judged Efficacy (ALP, t-test relative to the control)” value (MC3T3-E1 cells [2]) was “◯ (The test substance shows an inhibitory effect (p < 0.05))”.
With Geranyl-Geranyl Conjugated Linoleate the “Cell Growth Rate” value (MC3T3-E1 cells [1]) was 120.1%, the “ALP Act.” value (MC3T3-E1 cells [2]) was 88.3 ± 4.8 KA-U/well and the “Judged Efficacy (ALP, t-test relative to the control)” value (MC3T3-E1 cells [2]) was “⊚ (The test substance shows a considerable inhibitory effect (p < 0.01))”.
Geranyl Eicosapentaenoate was tested, and the “Judged Efficacy (TRACP, t-test relative to the control)” value (osteoclasts) was “Δ”, the “TRACP Act.” value (osteoclasts) was 87.4 ± 10.3 KA-U/well and the “Cell Growth Rate” value (MC3T3-E1 cells [1]) was 121.4%. For the same compound, the “ALP Act.” value (MC3T3-E1 cells [2]) was 87.2 ± 10.6 KA-U/well and the “Judged Efficacy (ALP, t-test relative to the control)” value (MC3T3-E1 cells [2]) was “◯ (The test substance shows an inhibitory effect (p < 0.05))”.
For `CCCCCCCC/C=C\CCCCCCCC(=O)OC/C=C(\C)CC/C=C(\C)CC/C=C(\C)CCC=C(C)C` [Geranyl-geranyl oleate, Geranyl-Geranyl Oleate], the “Judged Efficacy (TRACP, t-test relative to the control)” value (osteoclasts) was “⊚ (The test substance shows a considerable inhibitory effect (p < 0.01))”, the “TRACP Act.” value (osteoclasts) was 16.8 ± 3.4 KA-U/well and the “Cell Growth Rate” value (MC3T3-E1 cells [1]) was 108.3%. For the same compound, the “ALP Act.” value (MC3T3-E1 cells [2]) was 82.8 ± 6.7 KA-U/well and the “Judged Efficacy (ALP, t-test relative to the control)” value (MC3T3-E1 cells [2]) was “◯ (The test substance shows an inhibitory effect (p < 0.05))”.
With `CCCCCCCCCCCCCCCCCC(=O)OC/C=C(\C)CC/C=C(\C)CC/C=C(\C)CCC=C(C)C` [Geranyl-geranyl stearate, Geranyl-Geranyl Stearate] the “Judged Efficacy (TRACP, t-test relative to the control)” value (osteoclasts) was “⊚ (The test substance shows a considerable inhibitory effect (p < 0.01))”, the “TRACP Act.” value (osteoclasts) was 25.3 ± 5.2 KA-U/well and the “Cell Growth Rate” value (MC3T3-E1 cells [1]) was 102.9%. The “ALP Act.” value (MC3T3-E1 cells [2]) was 80.1 ± 5.2 KA-U/well and the “Judged Efficacy (ALP, t-test relative to the control)” value (MC3T3-E1 cells [2]) was “◯ (The test substance shows an inhibitory effect (p < 0.05))”.
`CC1=CC(=O)c2ccccc2C1=O` [Vitamin K3, reference compound] was tested, and the “Judged Efficacy (TRACP, t-test relative to the control)” value (osteoclasts) was “◯ (The test substance shows an inhibitory effect (p < 0.05))”, the “TRACP Act.” value (osteoclasts) was 87.9 ± 10.2 KA-U/well and the “Cell Growth Rate” value (MC3T3-E1 cells [1]) was 0.0%. The “ALP Act.” value (MC3T3-E1 cells [2]) was 91.2 ± 11.0 KA-U/well and the “Judged Efficacy (ALP, t-test relative to the control)” value (MC3T3-E1 cells [2]) was “◯ (The test substance shows an inhibitory effect (p < 0.05))”.
With `CCCCC/C=C\C/C=C\C/C=C\CCCCC(=O)OC/C=C(\C)CC/C=C(\C)CC/C=C(\C)CCC=C(C)C` [Geranyl-Geranyl γ-Linolenate] the “Judged Efficacy (TRACP, t-test relative to the control)” value (osteoclasts) was “⊚ (The test substance shows a considerable inhibitory effect (p < 0.01))”, the “TRACP Act.” value (osteoclasts) was 21.7 ± 4.9 KA-U/well and the “Cell Growth Rate” value (MC3T3-E1 cells [1]) was 111.4%. For the same compound, the “ALP Act.” value (MC3T3-E1 cells [2]) was 84.4 ± 5.1 KA-U/well and the “Judged Efficacy (ALP, t-test relative to the control)” value (MC3T3-E1 cells [2]) was “⊚ (The test substance shows a considerable inhibitory effect (p < 0.01))”.
For Phytyl Eicosapentaenoate, the “Judged Efficacy (TRACP, t-test relative to the control)” value (osteoclasts) was “◯ (The test substance shows an inhibitory effect (p < 0.05))”, the “TRACP Act.” value (osteoclasts) was 84.2 ± 7.1 KA-U/well and the “Cell Growth Rate” value (MC3T3-E1 cells [1]) was 123.4%. For the same compound, the “ALP Act.” value (MC3T3-E1 cells [2]) was 114.6 ± 7.7 KA-U/well and the “Judged Efficacy (ALP, t-test relative to the control)” value (MC3T3-E1 cells [2]) was “⊚ (The test substance shows a considerable inhibitory effect (p < 0.01))”.
Geranyl-Geranyl Docosahexaenoate was tested, and the “Judged Efficacy (TRACP, t-test relative to the control)” value (osteoclasts) was “⊚ (The test substance shows a considerable inhibitory effect (p < 0.01))”, the “TRACP Act.” value (osteoclasts) was 18.5 ± 5.8 KA-U/well and the “Cell Growth Rate” value (MC3T3-E1 cells [1]) was 104.8%. The “ALP Act.” value (MC3T3-E1 cells [2]) was 89.8 ± 6.1 KA-U/well and the “Judged Efficacy (ALP, t-test relative to the control)” value (MC3T3-E1 cells [2]) was “⊚ (The test substance shows a considerable inhibitory effect (p < 0.01))”.
